{"source": "patent US20100169994A1", "about": "“ANIMAL MODEL” (priority 2007, published 2010)", "key": {"NK1−/− and NK1+/+ mice [1]": {"tested_on": "NK1−/− and NK1+/+ mice", "assay": "Light/dark exploration box (LDEB), locomotor activity after d-AMP with or without NK1 antagonist pretreatment", "format": "in vivo", "settings": "for behaviour (locomotor activity, response to d-AMP) of NK1+/+ mice given a NK1 antagonist ('pseudo knockout'): RP 67580 5 or 10 mg/kg i.p. or L 733060 5 mg/kg; for locomotor activity (number of lines crossed): d-AMP 2.5 mg/kg i.p.", "protocol": "(§1) Experiments were carried out on male NK1−/− (‘knock-out’) and NK1+/+(wild-type) mice, weighing 25-35 g (i.e. about 6-7 weeks of age). Mice were derived from a 129/Sv×C57BL/6 genetic background that had been crossed with an outbred MF1 strain (Harlan OLAC, Bicester, UK). All mice were taken from a colony maintained at University College London.\nAll experiments tested the behaviour of (formerly) treatment-naïve mice in the LDEB and were carried out between 13:00 h and 15:00 h. Each LDEB consisted of a small ‘dark zone’ (length, 15 cm; width, 20 cm; 174 lux) and a larger ‘light zone’ (length 30 cm; width, 20 cm; 346 lux). The walls and floor of the ‘dark zone’ were coloured black. The walls and floor of the ‘light zone’ were coloured white. The floor of both zones was marked as a grid of 5×5 cm squares (12 in the dark zone, 24 in the light zone) which was used to score locomotor activity. The partition separating the two zones incorporated a small (white) guillotine-style door (height 10.5 cm, width 7.5 cm), which could be raised to allow animals to commute between the two compartments. Mice were tested in pairs in two LDEBs, placed side by side. At 13:00 h, each mouse was placed in the dark zone of a LDEB, with the partition door closed. After 30 min in the dark zone, mice of each genotype were randomly assigned to one of six treatment groups (n=3˜4) and given an injection (10 mL/kg; i.p) of either vehicle (one drop of Tween 80 in saline to appropriate volume) or the NK1 antagonist, RP 67580 (5 or 10 mg/kg). The same subjects were given a second injection or either saline or d-amphetamine (2.5 mg/kg, i.p), 30 min later.\nAt 14:30 h, each mouse was transferred to the centre of the novel light zone, facing away from the guillotine style door. The door was immediately lifted to allow the animals to commute freely between the two compartments. Their behaviour was recorded with a Sony Handycam Vision video recorder for 30 min. The number of lines crossed by all four paws of the mouse (as an index of locomotor activity) was scored ‘blind’, in 5-min time-bins.\nIn a second experiment, this protocol was repeated, substituting the NK1 antagonist, L 733060 (5 mg/kg) in place of RP 67580. All other details (including Tween vehicle) were the same.\nRP 67580 was administered at 5 or 10 mg/kg; dissolved in a drop of Tween 80 and adjusted to the appropriate concentration by adding 0.9% saline. […]\nThe data were analysed by three-way (experiment testing RP 67580) or two-way (for […]) ANOVA using ‘genotype’, ‘drug’ and ‘dose’ (if appropriate) as main factors. […] Data are expressed as means±s.e.mean and P≦0.05 was set as the criterion for significance."}, "NK1−/− and NK1+/+ mice [2]": {"tested_on": "NK1−/− and NK1+/+ mice", "assay": "Light/dark exploration box (LDEB), locomotor activity after methylphenidate", "format": "in vivo", "settings": "methylphenidate 2.5 mg/kg i.p.", "protocol": "as §1, with “NK1+/+ (wild-type)” for “NK1+/+(wild-type)”\nAll experiments tested the behaviour of (formerly) treatment-naïve mice in the LDEB and were carried out between 13:00 h and 15:00 h. Each LDEB consisted of a small ‘dark zone’ (length, 15 cm; width, 20 cm; 174 lux) and a larger ‘light zone’ (length, 30 cm; width 20 cm; 346 lux). The walls and floor of the ‘dark zone’ were coloured black. The walls and floor of the ‘light zone’ were coloured white. […]\n30 min later, the mice were transferred to the centre of the novel light zone, facing away from the guillotine style door. […] Their behaviour was recorded with a Sony Handycam Vision video recorder for 30 min. The number of lines crossed by all four paws of the mouse (an index of locomotor activity) was scored ‘blind’, in 10-min time-bins. […]\nThe data were analysed by two-way ANOVA using ‘genotype’ and ‘treatment as main factors. […] Data are expressed as means±s.e.mean and […] was set as the criterion for significance."}, "NK1−/− and NK1+/+ mice [3]": {"tested_on": "NK1−/− and NK1+/+ mice", "assay": "Microdialysis of extracellular dopamine in frontal cortex/striatum after d-amphetamine", "format": "in vivo", "settings": "d-amphetamine 5 mg/kg i.p.", "protocol": "as §1, with “NK1+/+ (wild-type)” for “NK1+/+(wild-type)”\nMicrodialysis probes were constructed in-house and equipped with cuprophan membrane (inner diameter 200 μm, outer diameter 250 μm, molecular weight cut-off 5 kD; Medicell International Ltd., England) forming an active dialysis window of 3.5 mm. Anaesthesia was induced in a closed chamber delivering 2.0% halothane combined with 95% O2/5% CO2 at 2 L/min. The mice were then placed in a stereotaxic frame and anaesthesia maintained, via a face mask, with 1.5% halothane in 95% O2/5% CO2 (2 L/min).\nA small incision was made in the scalp to expose the skull and reveal bregma. […] Vital signs were monitored continually to ensure a respiratory rate of 100-190/min (average: 135±20/min). […]\nThe dopamine content of the dialysis samples was determined by HPLC coupled to electrochemical detection. […] Dopamine was detected using a Coulochem TI detector (ESA) and the mobile phase was conditioned by a guard cell (ESA model 5020). The […] content of the samples was calculated from the peak height of the chromatogram with reference to an external standard. […]"}, "[4]": {"tested_on": "NK1−/− and wild-type mice", "settings": "wild-type versus NK1−/− mice; FIG. 13", "protocol": "The effect of betaxolol and desipramine was tested using similar protocols to those used for testing the effect of d-amphetamine."}, "NK1R−/− and NK1R+/+ mice": {"tested_on": "NK1R−/− and NK1R+/+ mice", "assay": "Activity meter (locomotor activity chamber), ambulatory activity", "format": "in vivo", "settings": "FIG. 2", "protocol": "Behavioural tests were carried out in a standard locomotor activity chamber comprising a custom-made transparent perspex box (length 30 cm; width 19 cm; depth 18 cm). The box was placed in the centre of an activity meter (410×410 mm, Columbia Instruments, USA) which was equipped with parallel infrared beams spanning the chamber. Ambulatory activity was scored whenever the mouse interrupted two adjacent beams. Light intensity within the chamber was 82 lux. All experiments were performed in drug-naive mice, between 14:00 h and 18:30 h. […] The apparatus was cleaned thoroughly with water after each experiment."}, "NK1−/− and NK1+/+ mice [5]": {"tested_on": "NK1−/− and NK1+/+ mice", "assay": "Light/dark exploration box, locomotor activity after desipramine", "format": "in vivo", "settings": "desipramine 10 mg/kg i.p., FIG. 3", "protocol": "Experiments were carried out on male NK1−/− (‘knock-out’) and NK1+/+(wild-type) mice, weighing 25-31 g (i.e. about 6-7 weeks of age). Mice were derived from a 129/Sv×C57BL/6 genetic background that had been crossed with an outbred MF1 strain (Harlan OLAC, Bicester, UK). All mice were taken from a colony maintained at University College London. All experiments were performed in treatment-naïve mice, between 13:00 h and 17:00 h. Behavioural tests were carried out in a custom-built light/dark exploration box (LDEB) (length 45 cm; width 20 cm; depth 25 cm). The test box consisted of a small ‘dark zone’ (length 15 cm; 4 lux) and a larger ‘light zone’ (length 30 cm; 20 lux). The walls and floor of the ‘dark zone’ were coloured black. […] The behaviour of the mouse was recorded on video for the following 30 min. The following behaviours were later scored ‘blind’, in 10 min time-bins: i) latency to leave the light zone following forced entry (anxiety-like behaviour or impulsivity?) ii) latency to first return to the light zone following the first exit (the appearance of all four paws was the criterion for re-entry) (impulsivity) iii) number of returns to the light zone (impulsivity) iv) number of lines crossed by all four paws of the mouse (as an index of locomotor activity) Data were analysed by two-way analysis of variance (ANOVA) using ‘genotype’ and ‘treatment’ as main factors. […]"}}, "note": "Entries after “also recorded” stand apart in the source; their conditions may differ.", "data": [{"smiles": "FC(F)(F)c1cc(CO[C@H]2CCCN[C@H]2c2ccccc2)cc(C(F)(F)F)c1", "note": "[L733060]", "values": [{"measurement": "behaviour (locomotor activity, response to d-AMP) of NK1+/+ mice given a NK1 antagonist ('pseudo knockout')", "setting": "NK1−/− and NK1+/+ mice [1]; NK1+/+ mice", "value": "Mimics that of Nk1−/− Mice"}]}, {"smiles": "COC(=O)C(c1ccccc1)C1CCCCN1", "note": "(stereo not drawn) [methylphenidate]", "values": [{"measurement": "locomotor activity (number of lines crossed)", "setting": "NK1−/− and NK1+/+ mice [2]; NK1+/+ mice", "value": "increased locomotor activity"}, {"measurement": "locomotor activity (number of lines crossed)", "setting": "NK1−/− and NK1+/+ mice [2]; NK1−/− mice", "value": "reduced activity"}]}, {"smiles": "COc1ccccc1CC(=N)N1C[C@@H]2C(=O)CCC(c3ccccc3)(c3ccccc3)[C@@H]2C1", "note": "[RP 67580]", "values": [{"measurement": "behaviour (locomotor activity, response to d-AMP) of NK1+/+ mice given a NK1 antagonist ('pseudo knockout')", "setting": "NK1−/− and NK1+/+ mice [1]; NK1+/+ mice", "value": "Mimics that of Nk1−/− Mice"}]}, {"smiles": "C[C@H](N)Cc1ccccc1", "note": "[d-AMP, d-amphetamine]", "values": [{"measurement": "locomotor activity (number of lines crossed)", "setting": "NK1−/− and NK1+/+ mice [1]; NK1+/+ mice", "value": "increased"}, {"measurement": "locomotor activity (number of lines crossed)", "setting": "NK1−/− and NK1+/+ mice [1]; NK1−/− mice", "value": "reduced"}, {"measurement": "extracellular dopamine in the frontal cortex/striatum", "setting": "NK1−/− and NK1+/+ mice [3]; NK1+/+ mice", "value": "increased"}, {"measurement": "extracellular dopamine in the frontal cortex/striatum", "setting": "NK1−/− and NK1+/+ mice [3]; NK1−/− mice", "value": "no d-AMP induced increase; also recorded: not NK1−/− mice"}]}, {"smiles": "CC(C)NCC(O)COc1ccc(CCOCC2CC2)cc1", "note": "(stereo not drawn) [betaxolol]", "values": [{"measurement": "locomotor activity", "setting": "[4]", "value": "not all drugs that increase locomotor activity in wild-type mice reduce it in NK1^−/− mice"}]}, {"smiles": "CNCCCN1c2ccccc2CCc2ccccc21", "note": "[desipramine]", "values": [{"measurement": "locomotor activity in an activity chamber", "setting": "NK1R−/− and NK1R+/+ mice; NK1R+/+ mice", "value": "not NK1R+/+ mice"}, {"measurement": "locomotor activity in an activity chamber", "setting": "NK1R−/− and NK1R+/+ mice; NK1R−/− mice", "value": "reduces locomotor activity"}, {"measurement": "hyperactivity (locomotor activity) in a light/dark exploration box", "setting": "NK1−/− and NK1+/+ mice [5]", "value": "reduction"}]}]}
